“And” between values parts separate entries of the source, which are not always exact repeats. Equal entries are not always repeated.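 Cells were grown in 96-well plates and exposed to each compound for 48 hours at five concentrations; endpoints were interpolated linearly between bracketing concentrations, or set to the highest concentration if not reached. Abbreviation: GI50, concentration required for 50% inhibition of growth. The concentration for full growth arrest is given as TGI.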
What was measured:
Assay in all cases: inhibition of tumour cell growth, NCI panel, 48 h
ACHN renal = tested on: ACHN renal
HCT-15 colon = tested on: HCT-15 colon
IGROV1 ovarian = tested on: IGROV1 ovarian
KM12 colon = tested on: KM12 colon
OVCAR-4 ovarian = tested on: OVCAR-4 ovarian
SF-295 CNS = tested on: SF-295 CNS
SF-539 CNS = tested on: SF-539 CNS
SK-OV-3 ovarian = tested on: SK-OV-3 ovarian
SNB-75 CNS = tested on: SNB-75 CNS
TK-10 renal = tested on: TK-10 renal

Compound | GI50 (ACHN renal) [nM] | TGI (ACHN renal) | GI50 (HCT-15 colon) [nM] | TGI (HCT-15 colon) | GI50 (IGROV1 ovarian) [nM] | TGI (IGROV1 ovarian) | GI50 (KM12 colon) [nM] | TGI (KM12 colon) | GI50 (OVCAR-4 ovarian) [µM] | TGI (OVCAR-4 ovarian) | GI50 (SF-295 CNS) [nM] | TGI (SF-295 CNS) | GI50 (SF-539 CNS) [nM] | TGI (SF-539 CNS) | GI50 (SK-OV-3 ovarian) [nM] | TGI (SK-OV-3 ovarian) [µM] | GI50 (SNB-75 CNS) [nM] | TGI (SNB-75 CNS) | GI50 (TK-10 renal) [nM] | TGI (TK-10 renal)
COc1cc(N=Nc2cc(Cc3ccc(N(C)C)cc3)c(N)cc2N(C)C)c2ncccc2c1 | 233 | 1.69 µM | 195 | 1.99 µM | 364 | 1.57 µM | 646 | 2.31 µM | 0.175 | 0.549 µM | 618 | 2 µM | 705 | 2.06 µM | 406 | 8.17 | 574 | 2.04 µM | 1620 | 4.36 µM
CC(=O)CCC1(c2ccccc2)OC(=O)C(C#N)=C1c1ccccc1 (centres undefined) |  | > 100 µM |  | > 100 µM |  | > 100 µM |  | > 100 µM |  | > 100 µM |  | > 100 µM |  | > 100 µM |  | > 100 |  | 74.1 µM |  | > 100 µM
CC(=O)c1cc2c(N)c(C(=O)Nc3cccc4ccccc34)sc2nc1C | 3610 | > 50 µM | 1710 | > 50 µM | 2920 | > 50 µM | 1890 | > 50 µM | 6.06 | > 50 µM | 922 | 3.59 µM | 1160 | 3.99 µM | 512 | > 50 | 1980 | 35.5 µM | 3770 | > 50 µM
N=C(N)c1ccc2oc3ccc(C(=N)N)cc3c(=O)c2c1 |  | > 100 µM |  | > 100 µM |  | > 100 µM |  | > 100 µM |  | > 100 µM |  | > 100 µM |  | > 100 µM |  |  |  | > 100 µM |  | > 100 µM
[Br][Pb]([c]1ccccc1)([c]1ccccc1)[c]1ccccc1 | 175 | 0.328 µM | 148 | 0.329 µM |  |  | 356 | 1.21 µM |  |  |  |  | 252 | 0.596 µM | 401 | 1.51 | 99.3 | 0.389 µM | 175 | 0.36 µM
COc1cccc(C2CC(=O)Nc3c2c(C)nn3-c2nc3ccccc3[nH]2)c1OC (centres undefined) | 3980 | > 90.9 µM | 3450 | 26.8 µM | 4330 | 24 µM | 4170 | 19.8 µM | 6.92 | > 91.3 µM | 1370 | 3.78 µM | 2760 | 9.38 µM | 3830 | 13 | 2430 | 13.5 µM | 6800 | > 100 µM
COC(=O)CC1(O)C(=O)OCc2c1cc1n(c2=O)Cc2c-1nc1ccccc1c2OC (centres undefined) |  | 1.02 µM |  | > 100 µM |  | > 74.3 µM |  | > 100 µM |  | > 36.1 µM |  | 17.5 µM |  | 0.681 µM |  | 17.4 |  | 3.56 µM |  | > 100 µM
CNC(=O)CCN1CCN(CC/C=C2\c3ccccc3Sc3ccc(Cl)cc32)CC1 | 13800 | 27.1 µM | 6570 | 20.6 µM | 15100 | 37.3 µM | 7530 | 23.5 µM | 13.2 | 28.2 µM | 1840 | 6.47 µM | 12500 | 25.6 µM | 16400 | 31.2 | 7430 | 23.1 µM | 14000 | 29.2 µM
CN(C)CCCN1c2ccccc2Sc2ccc(C(F)(F)F)cc21 | 1810 | 3.85 µM and 28.8 µM and 28.2 µM | 1920 | 3.73 µM and 31 µM and 31.1 µM | 1670 | 3.31 µM and 29.3 µM and 30.1 µM | 1650 |  | 1.97 | 5.53 µM and 28 µM | 1650 | 3.23 µM and 30.4 µM and 29.1 µM | 1830 |  | 1530 |  | 1320 | 3.51 µM and 26 µM and 24.8 µM | 1770 | 3.24 µM and 28.8 µM and 31.6 µM
CC1NOC(=O)C1N=Nc1cccc(Cl)c1 (centres undefined) |  | > 100 µM |  | 42.6 µM |  | > 100 µM |  | > 100 µM |  | > 100 µM |  | > 100 µM |  | > 100 µM |  | 96.1 |  | 92.2 µM |  | > 100 µM
Nc1nc(Cl)c2ncn(CCCC(c3ccccc3)P(=O)(O)O)c2n1 (centres undefined) |  | > 100 µM |  | > 100 µM |  | > 100 µM |  | > 100 µM |  |  |  | > 100 µM |  | > 100 µM |  | > 100 |  | > 100 µM |  | > 100 µM
O=[N+]([O-])c1cccc(/C=N/Nc2ccc3ccccc3n2)c1O |  |  |  | > 100 µM |  | > 42.7 µM |  | 32.9 µM |  | > 39.6 µM |  | 14.2 µM |  | 8.91 µM |  | 11.1 |  |  |  | > 44.9 µM
Fc1ccccc1CN1COc2c(cc(Cl)c3cccnc23)C1 |  | 10.3 µM |  | 2.23 µM |  | 18.6 µM |  | 12.1 µM |  | 4.88 µM |  | 12.1 µM |  | 10.6 µM |  | 19.6 |  | 14.7 µM |  | 18 µM
O=C(Nc1ccn(C2CC(O)C(COC(c3ccccc3)(c3ccccc3)c3ccccc3)O2)c(=O)n1)c1ccccc1 (centres undefined) |  | 9.31 µM |  | 6.4 µM |  | 6.12 µM |  | 17.9 µM |  | 7.88 µM |  | 3.55 µM |  | 8.49 µM |  | 28.3 |  | 9.05 µM |  | 
CC1[C@@]2(CCC(C)(C)O2)O[C@@H]2C=C3C4CCC5Cc6nc7c(nc6C[C@@]5(C)C4C[C@H](O)[C@@]3(C)[C@]12O)CC1CCC2C3=C[C@H]4O[C@@]5(O[C@@](C)(CO)C[C@@H]5O)C(C)[C@@]4(O)[C@]3(C)[C@@H](O)CC2[C@]1(C)C7 (some centres undefined) |  |  | 9.07 | 0.732 µM and 0.075 µM | 8.31 | 0.59 µM | 44.6 | 0.624 µM and 0.572 µM | 0.0921 | 0.81 µM | < 0.365 |  | 3.03 | 0.0418 µM and 0.0415 µM | 1.78 |  | < 0.365 |  |  | 0.981 µM
O=C(N/C(=C\c1ccc([N+](=O)[O-])cc1)c1nc2ccccc2s1)c1ccccc1 |  | 92.1 µM |  | > 100 µM |  | > 100 µM |  | 92.1 µM |  | 81.3 µM |  |  |  | 55.1 µM |  | > 100 |  | 63.5 µM |  | 61.9 µM
